According to publication doi:10.1101/2024.03.18.584035v1 (biorxiv, 2024):

Biological target: T1, olTRPM2 (Oryzias latipes, UniProt H2MNZ1)
T1 sequence (H2MNZ1 1-1431): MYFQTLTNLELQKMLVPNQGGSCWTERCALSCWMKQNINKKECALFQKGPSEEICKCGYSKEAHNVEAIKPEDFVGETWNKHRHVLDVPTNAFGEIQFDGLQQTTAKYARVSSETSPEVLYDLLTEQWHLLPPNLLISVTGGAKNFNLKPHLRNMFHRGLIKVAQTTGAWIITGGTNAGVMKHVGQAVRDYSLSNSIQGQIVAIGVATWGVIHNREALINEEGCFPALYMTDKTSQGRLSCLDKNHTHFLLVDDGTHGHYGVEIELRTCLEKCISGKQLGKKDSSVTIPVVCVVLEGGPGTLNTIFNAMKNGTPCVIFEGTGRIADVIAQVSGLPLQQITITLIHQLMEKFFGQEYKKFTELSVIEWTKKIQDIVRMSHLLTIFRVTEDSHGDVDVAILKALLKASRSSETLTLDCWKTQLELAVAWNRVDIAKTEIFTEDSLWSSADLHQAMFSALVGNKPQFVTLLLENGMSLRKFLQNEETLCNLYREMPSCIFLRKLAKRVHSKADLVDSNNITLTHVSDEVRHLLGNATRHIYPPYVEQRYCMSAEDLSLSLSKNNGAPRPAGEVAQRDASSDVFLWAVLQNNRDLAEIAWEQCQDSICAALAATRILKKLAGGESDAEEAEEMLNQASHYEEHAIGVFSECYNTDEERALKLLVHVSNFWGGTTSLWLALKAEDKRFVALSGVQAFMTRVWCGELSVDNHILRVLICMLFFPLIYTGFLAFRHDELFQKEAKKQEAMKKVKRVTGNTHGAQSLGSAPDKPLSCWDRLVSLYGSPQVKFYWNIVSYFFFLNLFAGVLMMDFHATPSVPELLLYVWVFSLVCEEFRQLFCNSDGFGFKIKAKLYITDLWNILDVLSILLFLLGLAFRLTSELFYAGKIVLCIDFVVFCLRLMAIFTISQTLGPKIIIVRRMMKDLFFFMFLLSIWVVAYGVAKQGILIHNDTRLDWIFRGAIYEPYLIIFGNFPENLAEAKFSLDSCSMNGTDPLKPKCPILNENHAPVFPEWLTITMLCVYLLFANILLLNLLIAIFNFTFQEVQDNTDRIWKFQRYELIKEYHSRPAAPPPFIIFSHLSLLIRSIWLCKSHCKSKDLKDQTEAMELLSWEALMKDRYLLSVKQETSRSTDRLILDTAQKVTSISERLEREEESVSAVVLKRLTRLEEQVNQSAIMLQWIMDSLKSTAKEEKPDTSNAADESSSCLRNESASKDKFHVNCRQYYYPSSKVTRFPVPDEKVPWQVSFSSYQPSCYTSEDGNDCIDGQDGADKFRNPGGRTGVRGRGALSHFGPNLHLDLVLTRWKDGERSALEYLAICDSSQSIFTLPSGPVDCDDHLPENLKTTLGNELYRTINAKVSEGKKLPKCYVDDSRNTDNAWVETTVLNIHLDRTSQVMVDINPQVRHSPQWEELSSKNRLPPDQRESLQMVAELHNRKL
Assay: whole-cell patch clamp, HEK293T
Format: cell-based
Settings: intracellular ADPR; room temperature; pH 7.4; -80 mV; agonist

EC50: 1100 ± 800 nM
Structure (SMILES): Nc1ncnc2c1ncn2[C@@H]1O[C@H](COP(=O)(O)OP(=O)(O)OC[C@H]2OC(O)[C@H](O)[C@@H]2O)[C@@H](O)[C@H]1O (stereo partly shown) [ADPR, adenosine diphosphate ribose]
